For orientation: Kd means the concentration at which binding is half-saturated. Low values mean a tighter complex, high ones a looser complex. A word on the stoichiometry N: it is a count of units in the complex or per binding partner.

One assay deals with T1, SaSir2-HerA (Staphylococcus aureus, UniProt C1PH93).
T1 sequence (C1PH93 1-428): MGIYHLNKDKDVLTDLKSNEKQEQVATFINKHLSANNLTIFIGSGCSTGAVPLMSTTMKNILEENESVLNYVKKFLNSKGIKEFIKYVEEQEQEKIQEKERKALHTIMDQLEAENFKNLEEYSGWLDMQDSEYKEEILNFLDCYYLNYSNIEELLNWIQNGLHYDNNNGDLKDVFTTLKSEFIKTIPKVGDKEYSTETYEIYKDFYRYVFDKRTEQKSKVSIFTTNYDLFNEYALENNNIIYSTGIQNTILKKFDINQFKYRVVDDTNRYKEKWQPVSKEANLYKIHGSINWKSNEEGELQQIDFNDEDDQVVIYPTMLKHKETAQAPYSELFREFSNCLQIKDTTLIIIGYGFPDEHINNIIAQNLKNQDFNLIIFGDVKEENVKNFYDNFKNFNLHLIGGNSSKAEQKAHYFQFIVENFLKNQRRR
T1 sequence (C1PH94 1-562 partner): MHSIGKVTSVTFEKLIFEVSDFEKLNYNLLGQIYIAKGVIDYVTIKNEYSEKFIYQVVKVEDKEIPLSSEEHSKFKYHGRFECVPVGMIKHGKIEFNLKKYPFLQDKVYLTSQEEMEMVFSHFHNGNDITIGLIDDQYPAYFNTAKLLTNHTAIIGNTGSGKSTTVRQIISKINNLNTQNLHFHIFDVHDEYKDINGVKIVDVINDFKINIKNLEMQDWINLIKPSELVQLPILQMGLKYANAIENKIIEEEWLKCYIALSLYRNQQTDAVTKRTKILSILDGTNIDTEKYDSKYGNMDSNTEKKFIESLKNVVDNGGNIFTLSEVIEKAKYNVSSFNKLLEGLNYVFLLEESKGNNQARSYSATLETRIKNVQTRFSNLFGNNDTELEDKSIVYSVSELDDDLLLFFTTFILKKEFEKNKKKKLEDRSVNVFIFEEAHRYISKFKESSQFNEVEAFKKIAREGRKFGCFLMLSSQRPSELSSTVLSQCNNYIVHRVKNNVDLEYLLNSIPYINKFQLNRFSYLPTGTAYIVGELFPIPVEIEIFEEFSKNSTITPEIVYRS
The assay is described as follows: biolayer interferometry, protein captured on Ni-NTA sensor. Format: binding.

Assay [1] deals with SaSir2 (Sir2 of Staphylococcus aureus), 6x His-tagged, expressed alone (Staphylococcus aureus). The assay is described as follows: AUC.

On SaSir2-HerA, `NC(=O)c1ccc[n+]([C@@H]2O[C@H](COP(=O)(O)OP(=O)(O)OC[C@H]3O[C@@H](n4cnc5c(N)ncnc54)[C@H](O)[C@@H]3O)[C@@H](O)[C@H]2O)c1` [NAD^+] gave a Kd of 4.39 µM.
“SaSir2 (Sir2 of Staphylococcus aureus), 6x His-tagged, expressed alone (enzyme)” gave a stoichiometry N in assay [1] of 2.
